The record followed here is US11447466B2, “Substituted indole compounds useful as inhibitors of TLR7/8/9” (BRISTOL-MYERS SQUIBB COMPANY, priority 2017, dated 2022).

Molecules are shown by their SMILES.

Holding throughout (assay type): cell-based
In one experiment the target is T1, human TLR9 (Homo sapiens, UniProt Q9NR96).
T1 construct: host or cells: HEK-Blue cells
T1 sequence (Q9NR96 26-1032): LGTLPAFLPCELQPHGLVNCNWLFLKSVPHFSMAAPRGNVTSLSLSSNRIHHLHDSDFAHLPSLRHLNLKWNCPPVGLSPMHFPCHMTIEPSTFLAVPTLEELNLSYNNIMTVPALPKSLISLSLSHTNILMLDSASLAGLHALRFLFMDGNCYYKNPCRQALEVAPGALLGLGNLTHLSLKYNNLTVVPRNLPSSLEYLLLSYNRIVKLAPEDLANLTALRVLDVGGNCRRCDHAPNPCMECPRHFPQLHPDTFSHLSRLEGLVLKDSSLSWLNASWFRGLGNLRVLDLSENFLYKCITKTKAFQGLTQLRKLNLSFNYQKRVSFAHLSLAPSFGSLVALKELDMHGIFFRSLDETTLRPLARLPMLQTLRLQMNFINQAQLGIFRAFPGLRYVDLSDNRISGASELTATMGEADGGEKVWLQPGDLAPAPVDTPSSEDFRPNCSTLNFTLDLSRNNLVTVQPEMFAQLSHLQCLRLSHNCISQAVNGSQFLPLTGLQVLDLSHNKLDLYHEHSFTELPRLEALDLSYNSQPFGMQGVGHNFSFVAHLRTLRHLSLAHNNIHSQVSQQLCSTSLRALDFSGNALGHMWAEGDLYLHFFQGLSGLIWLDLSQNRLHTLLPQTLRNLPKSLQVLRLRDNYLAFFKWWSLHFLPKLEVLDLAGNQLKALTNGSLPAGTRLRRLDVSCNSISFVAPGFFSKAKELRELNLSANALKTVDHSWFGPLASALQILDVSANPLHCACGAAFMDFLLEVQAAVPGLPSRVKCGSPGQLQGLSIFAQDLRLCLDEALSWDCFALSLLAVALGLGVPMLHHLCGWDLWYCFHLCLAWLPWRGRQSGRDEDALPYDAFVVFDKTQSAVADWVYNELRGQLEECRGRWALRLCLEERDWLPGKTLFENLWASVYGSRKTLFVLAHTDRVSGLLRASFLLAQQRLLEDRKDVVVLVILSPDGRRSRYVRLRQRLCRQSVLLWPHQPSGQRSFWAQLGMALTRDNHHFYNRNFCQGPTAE
The experiment in a line: TLR9 inhibition reporter assay (HEK-Blue SEAP reporter, ODN2006 stimulation). As to conditions: HEK-Blue cells overexpressing human TLR9, SEAP reporter, ODN2006 5 nM, 22 hour incubation. Summed up:
(§1)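 Dose–response from 0.05 nM to 50 μM was run in HEK-Blue human TLR7, TLR8 and TLR9 reporter cells. After 30 min at room temperature with compound, ligand was added (TLR7 gardiquimod 7.5 μM; TLR8 R848 15.9 μM; TLR9 ODN2006 5 nM) and SEAP measured next day, at 22 h.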
A general note: A reporter such as luciferase makes a cellular process visible.

The next experiment addresses T2, human TLR8 (Homo sapiens, UniProt Q9NR97).
T2 construct: host or cells: HEK-Blue cells
T2 sequence (Q9NR97 27-1041): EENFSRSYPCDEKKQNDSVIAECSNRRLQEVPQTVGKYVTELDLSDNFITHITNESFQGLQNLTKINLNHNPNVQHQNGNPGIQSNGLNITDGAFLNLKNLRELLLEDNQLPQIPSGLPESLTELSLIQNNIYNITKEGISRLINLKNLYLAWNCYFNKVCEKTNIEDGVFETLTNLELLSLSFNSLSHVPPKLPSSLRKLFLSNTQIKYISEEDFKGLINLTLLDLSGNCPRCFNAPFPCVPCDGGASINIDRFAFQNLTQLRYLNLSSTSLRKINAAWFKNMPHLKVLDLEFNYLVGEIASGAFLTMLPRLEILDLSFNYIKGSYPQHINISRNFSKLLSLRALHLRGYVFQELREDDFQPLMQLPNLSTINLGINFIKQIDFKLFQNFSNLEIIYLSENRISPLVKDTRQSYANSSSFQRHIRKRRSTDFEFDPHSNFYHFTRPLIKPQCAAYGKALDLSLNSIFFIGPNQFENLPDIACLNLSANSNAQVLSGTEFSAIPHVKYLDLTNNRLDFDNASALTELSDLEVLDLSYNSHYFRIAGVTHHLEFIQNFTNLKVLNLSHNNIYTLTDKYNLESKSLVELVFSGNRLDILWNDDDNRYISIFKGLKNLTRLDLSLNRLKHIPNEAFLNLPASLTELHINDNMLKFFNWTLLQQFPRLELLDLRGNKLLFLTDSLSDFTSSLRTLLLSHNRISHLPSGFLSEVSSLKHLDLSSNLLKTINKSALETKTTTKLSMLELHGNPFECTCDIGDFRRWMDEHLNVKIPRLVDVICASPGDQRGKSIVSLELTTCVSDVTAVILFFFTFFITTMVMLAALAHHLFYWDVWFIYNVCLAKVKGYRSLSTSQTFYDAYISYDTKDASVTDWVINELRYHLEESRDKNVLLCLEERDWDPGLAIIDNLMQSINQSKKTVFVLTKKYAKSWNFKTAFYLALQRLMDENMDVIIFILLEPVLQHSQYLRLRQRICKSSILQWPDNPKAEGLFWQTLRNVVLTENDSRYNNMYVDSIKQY
The experiment can be described thus: TLR8 inhibition reporter assay (HEK-Blue SEAP reporter, R848 stimulation). As to conditions: HEK-Blue cells overexpressing human TLR8, SEAP reporter, R848 15.9 μM, 22 hour incubation. Summed up: as §1

A further experiment addresses T3, human TLR7 (Homo sapiens, UniProt Q9NYK1).
T3 construct: host or cells: HEK-Blue cells
T3 sequence (Q9NYK1 27-1049): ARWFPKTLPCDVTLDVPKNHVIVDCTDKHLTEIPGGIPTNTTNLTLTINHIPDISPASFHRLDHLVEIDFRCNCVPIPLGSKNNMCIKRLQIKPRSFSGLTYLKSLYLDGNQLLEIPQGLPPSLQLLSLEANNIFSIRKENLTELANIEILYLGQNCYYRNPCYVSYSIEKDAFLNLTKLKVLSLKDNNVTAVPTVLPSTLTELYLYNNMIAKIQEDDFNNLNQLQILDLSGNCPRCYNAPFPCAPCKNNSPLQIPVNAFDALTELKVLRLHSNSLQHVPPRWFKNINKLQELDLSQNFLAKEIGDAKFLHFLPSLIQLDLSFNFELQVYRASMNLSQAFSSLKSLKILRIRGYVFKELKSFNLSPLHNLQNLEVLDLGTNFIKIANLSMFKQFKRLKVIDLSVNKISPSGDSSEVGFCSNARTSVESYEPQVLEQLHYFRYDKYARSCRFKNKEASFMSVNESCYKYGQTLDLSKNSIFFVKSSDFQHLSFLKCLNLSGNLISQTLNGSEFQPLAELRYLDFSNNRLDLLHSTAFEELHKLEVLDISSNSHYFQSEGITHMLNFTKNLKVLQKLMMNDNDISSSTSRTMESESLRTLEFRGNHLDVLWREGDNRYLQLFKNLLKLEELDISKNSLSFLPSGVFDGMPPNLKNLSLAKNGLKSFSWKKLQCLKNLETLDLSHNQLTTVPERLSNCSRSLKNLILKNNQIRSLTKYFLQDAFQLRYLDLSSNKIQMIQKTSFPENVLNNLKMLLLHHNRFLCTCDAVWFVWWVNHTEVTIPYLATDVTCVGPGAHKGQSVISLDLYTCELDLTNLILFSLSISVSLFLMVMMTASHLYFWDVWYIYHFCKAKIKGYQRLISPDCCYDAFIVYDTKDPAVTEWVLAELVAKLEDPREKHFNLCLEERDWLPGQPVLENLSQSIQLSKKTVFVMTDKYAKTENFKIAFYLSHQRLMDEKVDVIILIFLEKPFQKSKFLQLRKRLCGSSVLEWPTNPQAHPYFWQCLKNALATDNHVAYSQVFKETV
The experiment in a line: TLR7 inhibition reporter assay (HEK-Blue SEAP reporter, gardiquimod stimulation). As to conditions: HEK-Blue cells overexpressing human TLR7, SEAP reporter, gardiquimod 7.5 μM, 22 hour incubation. Summed up: as §1

The term IC50 denotes the concentration needed to halve the response being measured. `Cc1cc(=O)n(C)nc1-c1[nH]c2ccc(C3CCNCC3)cc2c1C(C)C` [Example 10, 6-(3-isopropyl-5-(piperidin-4-yl)-1H-indol-2-yl)-2,5-dimethylpyridazin-3(2H)-one]: the values for the concentration for half-maximal inhibition (IC50) against human TLR9, on human TLR8 and against human TLR7 were 1540 nM, 38.4 nM and 330 nM, respectively.

On to `CCCNC(=O)c1cc(-c2[nH]c3ccc(C4CCNCC4)cc3c2C(C)C)cn(C)c1=O` [Example 64, 5-(3-isopropyl-5-(piperidin-4-yl)-1H-indol-2-yl)-1-methyl-2-oxo-N-propyl-1,2-dihydropyridine-3-carboxamide], for which the IC50 is 7380 nM at human TLR9, 1080 nM against human TLR8 and 480 nM on human TLR7.

`CNC(=O)CN1CCC(c2ccc3[nH]c(-c4cn(C)c(=O)c(OC)c4C)c(C(C)C)c3c2)CC1` [Example 140, 2-(4-(3-isopropyl-2-(5-methoxy-1,4-dimethyl-6-oxo-1,6-dihydropyridin-3-yl)-1H-indol-5-yl)piperidin-1-yl)-N-methylacetamide]: the IC50 against human TLR9 was 21900 nM; at human TLR8 it was 39.7 nM; on human TLR7, 47.8 nM.

`Cc1cc(-c2[nH]c3ccc(C4CCN(CCC(N)=O)CC4)cc3c2C(C)C)cn(C)c1=O` [Example 82, 3-(4-(2-(1,5-dimethyl-6-oxo-1,6-dihydropyridin-3-yl)-3-isopropyl-1H-indol-5-yl)piperidin-1-yl)propanamide]: the half-inhibitory concentration (IC50) turned out to be 799 nM at human TLR9, 11.9 nM at human TLR8 and 9.5 nM against human TLR7.

With `Cc1cc(-c2[nH]c3ccc(C4CCN([C@H]5CCOC[C@@H]5O)CC4)cc3c2C(C)C)cn(C)c1=O` [Example 313, 5-(5-(1-((3R,4S)-3-hydroxytetrahydro-2H-pyran-4-yl)piperidin-4-yl)-3-isopropyl-1H-indol-2-yl)-1,3-dimethylpyridin-2(1H)-one], the IC50 against human TLR9 turned out to be 8040 nM; on human TLR8, 3.1 nM; against human TLR7 it was 4.7 nM.

Regarding `Cc1ncccc1-c1cc(-c2[nH]c3ccc(C4CCN(C(C)C)CC4)cc3c2C(C)C)cn(C)c1=O` [Example 344, 5-(3-isopropyl-5-(1-isopropylpiperidin-4-yl)-1H-indol-2-yl)-1,2′-dimethyl-[3,3′-bipyridin]-2(1H)-one], the IC50 at human TLR9 was found to be 322 nM; against human TLR8, 26.5 nM; on human TLR7, 11.5 nM.

Take `CC(C)c1c(-c2cc(F)c(=O)n(C)c2)[nH]c2ccc(C3CCNCC3)cc12` [Example 13, 3-fluoro-5-(3-isopropyl-5-(piperidin-4-yl)-1H-indol-2-yl)-1-methylpyridin-2(1H)-one]: the half-maximal inhibitory concentration (IC50) was found to be 593 nM at human TLR9, 33.9 nM against human TLR8 and 18.2 nM at human TLR7.

Take `COC(=O)c1cc(-c2[nH]c3ccc(C4CCNCC4)cc3c2C(C)C)cn(C)c1=O` [Example 37, methyl 5-(3-isopropyl-5-(piperidin-4-yl)-1H-indol-2-yl)-1-methyl-2-oxo-1,2-dihydropyridine-3-carboxylate]: the IC50 against human TLR9 was 2430 nM; at human TLR8, 182 nM; against human TLR7, 458 nM.

Regarding `Cc1cc(-c2[nH]c3ccc(C4CCN(C5CCCCC5)CC4)cc3c2C(C)C)cn(C)c1=O` [Example 87, 5-(5-(1-cyclohexylpiperidin-4-yl)-3-isopropyl-1H-indol-2-yl)-1,3-dimethylpyridin-2(1H)-one], the IC50 against human TLR9 came out at 2560 nM; on human TLR8, 5.7 nM; against human TLR7, 3.1 nM.

Turning to `Cc1cc(-c2[nH]c3ccc(C4CCN(C5CCN(C)C5=O)CC4)cc3c2C(C)C)cn(C)c1=O` (stereo not drawn) [Example 127, 5-(3-isopropyl-5-(1-(1-methyl-2-oxopyrrolidin-3-yl)piperidin-4-yl)-1H-indol-2-yl)-1,3-dimethylpyridin-2(1H)-one], the 50% inhibitory concentration (IC50) worked out at 33600 nM against human TLR9, 5.2 nM at human TLR8 and 3.7 nM against human TLR7.

Regarding `CCn1cc(-c2[nH]c3ccc(C4CCN(C5COC5)CC4)cc3c2C(C)C)c(C)c(C)c1=O` [Example 209, 1-ethyl-5-(3-isopropyl-5-(1-(oxetan-3-yl)piperidin-4-yl)-1H-indol-2-yl)-3,4-dimethylpyridin-2(1H)-one], the 50% inhibitory concentration (IC50) came out at 17500 nM at human TLR9, 18 nM on human TLR8 and 34.3 nM against human TLR7.

On to `CNC(=O)CN1CCC(c2ccc3[nH]c(-c4cc(C)c(=O)n(C)c4C)c(C(C)C)c3c2)CC1` [Example 139, 2-(4-(3-isopropyl-2-(1,2,5-trimethyl-6-oxo-1,6-dihydropyridin-3-yl)-1H-indol-5-yl)piperidin-1-yl)-N-methylacetamide], for which the IC50 was found to be 10400 nM against human TLR9, 4.2 nM against human TLR8 and 15.4 nM on human TLR7.

With `Cc1cc(=O)n(C)cc1-c1[nH]c2ccc(C3CCNCC3)cc2c1C(C)C` [Example 8, 5-(3-isopropyl-5-(piperidin-4-yl)-1H-indol-2-yl)-1,4-dimethylpyridin-2(1H)-one], the IC50 against human TLR9 was 957 nM; against human TLR8, 43.5 nM; against human TLR7 it was 72.7 nM.
